Measurements taken from patent publication US20070142396A1, “Treatment of pain with 1-[3-[4-(3-chlorophenyl)-1-piperazinyl]propyl]-5-methoxy-3,4-dihydro-2(1H)-quinolone or salt thereof” (Vela Pharmaceuticals, Inc., priority 2005, published 2007).

Columns and labels:
Assay type in all cases: in vivo, rat
[1] = system: rats with spinal nerve ligature (Chung neuropathic pain model); test: Chung neuropathic pain model, tactile stimulation, second experiment (Example 3); conditions: acute; for effect on force inducing paw withdrawal: p.o.
Method: For tactile stimulation, the animal was placed under an inverted Plexiglas® box (17×11×14 cm) on a grid floor. The tip of an electronic Von Frey probe (Bioseb, Model 1610, Chaville, France) was applied with increasing pressure to the non-lesioned hindpaw or the lesioned hindpaw. The force required to induce paw withdrawal was automatically recorded. This procedure was carried out three times for each paw, and the mean force per paw was calculated to provide basic scores per animal.
(§1) The rats used in this experiment were the same rats used in Example 2. The materials and methods for this experiment were identical to those for Example 2 with the following exceptions: there was a 1-week washout between the two experiments, and the rats weighed 290-403 g at the start of this experiment. Prior to receiving drug treatment, all animals were submitted to tactile stimulation and assigned to treatment groups matched on the basis of their pain response. No account was taken of the treatment administered during the first experiment in assigning animals to treatment groups for this experiment.
(§2) All of the substances were administered orally. Morphine, dissolved in distilled water, was administered at 128 mg/kg dose p.o. Rats were tested 30 minutes, 1 hour, 2 hours, and 4 hours after administration of the substances.

[2] = system: rats with spinal nerve ligature (Chung neuropathic pain model); test: Chung neuropathic pain model, cold allodynia on cold plate (Example 3); conditions: cold plate
Excerpt: as §1, §2
Behavioral testing was carried out by measuring cold allodynia using an apparatus consisting of a cold plate maintained at 4±1° C. Rats were individually placed on the cold plate for a period of 5 minutes. The latency to the first paw withdrawal response and the number and total duration of withdrawal responses in 5 minutes were recorded for both the lesioned and the non-lesioned hindpaws.

[3] = system: rats with L5 spinal nerve ligation (SNL model); test: Spinal nerve ligation (L5) neuropathic pain model, von Frey filaments, dose range (Example 5)
Excerpt: The spinal nerve ligation (SNL) model of neuropathic pain was produced in all rats as described by Kim and Chung (Pain, 50, 355-363, 1992). Briefly, under gaseous anesthesia using halothane (3% for induction and 1.5% for maintenance) in oxygen, the left L5 spinal nerve was exposed by removing the paraspinal muscles and the transverse process of the L6 vertebra. The very proximal portion of the L5 spinal nerve was tightly ligated with 6-0 silk suture. The wounds were closed and anesthesia was discontinued. Rats were kept on a heated blanket until they had completely recovered from anesthesia.
Behavioral tests were conducted in a non-blind fashion. The foot withdrawal threshold to mechanical stimuli applied to the paw (mechanical threshold) was measured, as an indicator of mechanical sensitivity of the affected paw. The foot withdrawal threshold was measured using von Frey filaments. It is generally thought that von Frey filaments are more sensitive than electronic von Frey probes for measuring tactile stimulation. The mechanical thresholds were measured by using the “up-and-down” method (Chaplan et al., J. Neurosci. Methods 53(1):55-63, 1994), following the procedures described in previous studies (Park et al., Pain 87(2):171-179, 2000; Xie et al., J. Pain 2(5):270-278, 2001; Baik et al., J. Pain 4:212-221, 2003). In brief, rats were placed in a transparent plastic box on a metal wire mesh floor. To determine the threshold stiffness required for 50% paw withdrawal, a series of eight von Frey filaments with approximately equal logarithmic incremental (0.22) von Frey values (3.65, 3.87, 4.10, 4.31, 4.52, 4.74, 4.92, and 5.16) were used. Von Frey (VF) values are logarithmically related to gram (g) values (VF=log (10,000×g)). The chosen von Frey values are therefore equivalent to 0.45, 0.74, 1.26, 2.04, 3.31, 5.50, 8.32, and 14.45 in gram value, respectively. Starting with filament 4.31, von Frey filaments were applied perpendicularly to the ventral surface of the proximal part of the third or fourth toe for 2-3 seconds. Whenever a positive response to a stimulus occurred (paw withdrawal), the next smaller von Frey hair was applied. Whenever a negative response occurred, the next larger one was applied. The test was continued until the response of six stimuli after the first change in response had been obtained or the test had reached either end of the spectrum of the von Frey set.
The 50% threshold value was then calculated using Dixon's formula (Dixon, Ann. Rev. Phar. Tox. 20:441-462, 1980): 50% threshold=X+kd, where X is the value of the final von Frey hair used (in log units), k is the tabular value for the pattern of positive/negative responses, and d is the mean difference between stimuli in log units (0.22). In the cases where continuous positive or negative responses were observed all the way out to the end of the stimulus spectrum, values of 3.54 or 5.27 were assigned, respectively, by assuming a value of (−/+) 0.5 for k in these cases (Dixon, supra, 1980). Outcome of behavioral data were expressed as von Frey values (maximum range from 3.54 to 5.27) and plotted in a linear scale.
Data were expressed as the mean±standard errors of mean (SEM). Differences in mechanical thresholds at various times after injections were tested using two-way (time and group factors) analysis of variance (ANOVA), followed by the Duncan's post-hoc test for multiple comparisons. Statistical analyses were done using the SAS® software program (SAS Institute Inc, Cary, N.C.). Two-tailed p-values<0.05 were considered to be significant.
This experiment was conducted on 8 rats in a Latin-square design examining a dose response of OPC-14523. Gabapentin was prepared at 10 mg/ml in 0.5% tragacanth and administered at 100 mg/kg p.o. Behavioral tests were conducted in a blind fashion twice (1 day and 1 hour) before as well as 1 and 4 days after the neuropathic surgery. […] These 8 rats were randomly divided into 6 groups of 1-2 rats. […]

**Q.** How did the “change of force inducing paw withdrawal vs vehicle” value (shortened to “change … vs vehicle”) ([1]; 30 mg/kg p.o., lesioned paw, 30 minutes, p=0.10) turn out when COc1cccc2c1CCC(=O)N2CCCN1CCN(c2cccc(Cl)c2)CC1 [OPC-14523, 1-[3-[4-(3-chlorophenyl)-1-piperazinyl]propyl]-5-methoxy-3,4-dihydro-2(1H)-quinolone] was run?
**A.** The value was “+46%”.

**Q.** What about the “change … vs vehicle” value ([1]; 30 mg/kg p.o., lesioned paw, 2 hours, p=0.11) of the same compound?
**A.** The value was “+79%”.

**Q.** And the “change … vs vehicle” value ([1]; 100 mg/kg p.o., lesioned paw, 30 minutes, p=0.11)?
**A.** The value was “+76%”.

**Q.** What about the “effect on force inducing paw withdrawal” value ([1]; lesioned paw) of the same compound?
**A.** Its value is “did not significantly affect”.

**Q.** What about the “effect on force inducing paw withdrawal” value ([1]; non-lesioned paw) of the same compound?
**A.** Its value is “no clear effects”.

**Q.** And the “decrease of number of withdrawal responses” value ([2]; 30 mg/kg p.o., lesioned paw, 30 minutes, p<0.01)?
**A.** Its value is 50%.

**Q.** And the “change of number of withdrawal responses” value ([2]; 30 mg/kg p.o., lesioned paw, 4 hours, p<0.05)?
**A.** The value was −48%.

**Q.** And the “change of total duration of withdrawal responses” value ([2]; 100 mg/kg p.o., 2 hours, p<0.05)?
**A.** The value was −95%.

**Q.** And the “change of latency to paw withdrawal” value ([2]; 100 mg/kg p.o., lesioned paw, 30 minutes, p<0.01)?
**A.** Its value is “+140%”.

**Q.** What about the “decrease of number of withdrawal responses” value ([2]; 100 mg/kg p.o., lesioned paw, 30 minutes, p<0.05) of the same compound?
**A.** The value was 64%.

**Q.** And the “change of latency to paw withdrawal” value ([2]; 100 mg/kg p.o., lesioned paw, 1 hour, p=0.24)?
**A.** The value was “+183%”.

**Q.** And the “effect on mechanical threshold” value ([3]; 10 mg/kg oral)?
**A.** Its value is “neither vehicle nor OPC-14523 at 10 mg/kg produced significant changes”.

**Q.** What about the “effect on mechanical threshold” value ([3]; 30 mg/kg oral) of the same compound?
**A.** Its value is “statistically significant increase”.

**Q.** And the “level of response compared with gabapentin 100 mg/kg p.o.” value ([3]; 30 mg/kg oral)?
**A.** Its value is “comparable to that of gabapentin”.

**Q.** And the “effect on mechanical threshold” value ([3]; 60 mg/kg oral)?
**A.** Its value is “statistically significant increase”.

**Q.** What about the “level of response compared with gabapentin 100 mg/kg p.o.” value ([3]; 60 mg/kg oral) of the same compound?
**A.** The value was “comparable to that of gabapentin”.

**Q.** And the “effect on mechanical threshold” value ([3]; 100 mg/kg oral)?
**A.** The value was “statistically significant increase”.

**Q.** And the “level of mechanical threshold reached” value ([3]; 100 mg/kg oral, exceeding the response induced by gabapentin)?
**A.** The value was “about the level observed prior to the ligature surgery”.
